Data taken from patent US7342092B2, “Cancer antigen peptide formulations” (International Institute of Cancer Immunology, Inc., priority 2002, dated 2008).
Where no end group is shown, it is not given here.

Assays:
[1] = test system: peripheral blood mononuclear cells (PBMC); assay: ELISPOT of IFN-γ producing T cells in PBMC, Example 1; type: cell-based, human; conditions: PBMC receiving the peptide in comparison with PBMC not receiving the peptide
[2] = test system: lung cancer patient two with metastasis at stage IV; assay: Change in blood tumor marker levels in the lung cancer patient two, Example 2; type: in vivo, human
Procedure: The present example illustrates the case of the lung cancer patient two with metastasis at stage IV, who was administered with the WT1 peptide vaccine. In a similar manner to Example 1, a solution of wild type WT1 peptide (SEQ ID NO: 2) was mixed with Montanide ISA (registered trademark) 51 to provide a water-in-oil emulsion each just before the administration wherein the emulsion was injected intradermally at the upper arm of the patient totally six times, i.d. on day 0, 14, 28, 42, 56, and 71 wherein day 0 represents the day when the first administration was conducted.
The levels of tumor markers, CEA and SLX, were determined in a similar manner to Example 1, and the level of CYFRA (cytokeratin 19 fragments) was determined using Elecsys CYFRA produced by Roche.

[3] = test system: CTLs reactive to the wild type WT1 peptide-presenting HLA-A*2402 molecule; assay: HLA tetramer method, CTLs reactive to wild type WT1 peptide-presenting HLA-A*2402, Example 3; type: in vivo, human; conditions: two days after the administration; 1.1% three days before the administration
Procedure: Subsequently, the number of cytotoxic T cells (CTLs) reactive to the wild type WT1 peptide-presenting HLA-A*2402 molecule in the same patient was determined by an HLA tetramer method. The HLA-A*2402 tetramer was prepared using the wild type WT1 peptide according to the method described in Int. J. Cancer 100, 565-570 (2002). On a flow cytometer, FACS, the cells were stained with the two colors of PE-labeled HLA-A*2402 tetramer and FITC-labeled CD8 antibody, and the double-positive cells were assigned to CTLs recognizing the wild type WT1 peptide, i.e., CTLs reactive to WT1-positive cancer cells. CTL frequency three days before the administration of the peptide was 1.1%, whereas the frequency was increased to 8.8% two days after the administration.

[4] = test system: cancer patient two suffered from acute myeloblastic leukemia (AML-M1) transformed from Myelodysplastic Syndromes (MDS); assay: Leukocyte number and bone marrow leukemic blasts in the leukemia patient, Example 3; type: in vivo, human
Procedure: The present example illustrates the case of the cancer patient two suffered from acute myeloblastic leukemia (AML-M1) transformed from Myelodysplastic Syndromes (MDS), who was administered with the WT1 peptide vaccine. The WT1 peptide used in this example was altered type WT1 peptide: Cys Tyr Thr Trp Asn Gln Met Asn Leu (SEQ ID NO: 3) synthesized by MPS Inc. (U.S.) with GMP grade. In a similar manner to Example 1, the peptide was mixed with MONTANIDE ISA (registered trademark) 51 to provide a water-in-oil emulsion, and the emulsion was injected intradermally at the upper arm of the patient. Leukemic blasts occupied 50% of the bone marrow two days before the administration, while the total number of leukocytes was 1500/μl on the day before the administration. Two days after the administration, the total number of leukocytes was decreased to 700/μl, and the leukemic blasts of the bone marrow reduced to 27%. When a hemopoietic factor, G-CSF, was administered to the patient in the light of the decreased total number of leukocytes, the total number recovered to 2150/μl, and the leukemic blasts of the bone marrow was 11% seven days after the administration.

Sequence	T cells producing IFN-γ in response to specifically the peptide (ELISPOT) [1]	level of SLX in blood ([2]; on and after the 2nd administration, before administration 50 U/ml, upper limit of normal 38 U/ml, FIG. 2)	level of CEA in blood ([2]; on and after the 2nd administration, before administration higher than upper limit of normal 5 ng/ml, FIG. 2)	level of CYFRA in blood ([2]; on and after the 3rd administration, below the upper limit of normal level, FIG. 2) [ng/mL]	development of the tumor ([2]; water-in-oil emulsion, overall conclusion of Example 2)	CTL frequency (HLA-A*2402 tetramer and CD8 double-positive cells) [3] [%]	leukemic blasts of the bone marrow ([4]; seven days after the administration, G-CSF also given) [%]	leukemic blasts of the bone marrow ([4]; two days after the administration, 50% two days before the administration) [%]	conditions of leukemia ([4]; water-in-oil emulsion, overall conclusion of Example 3)
CMTWNQMNL [wild type WT1 peptide]	found to be more	decreased to reach the normal level	decreased	< 2	suppressed the development of the tumor				
CYTWNQMNL [altered type WT1 peptide]						8.8	11	27	improved the conditions of leukemia with decreased ratio of the leukemic blasts in the bone marrow
